Assay results published in patent US9734575B2, “Method for assessing cell aging” (CHRONOS THERAPEUTICS LIMITED, priority 2013, dated 2017).

Test system: AM134bus-5 mutant C. elegans
Experiment: FUDR treatment (transfer and topical) to prevent second generation progeny in synchronised worm populations on multi-well plates
Format: in vivo, Caenorhabditis elegans
Method: Topical and transfer methods of FUDR application were compared and the optimal concentration of the FUDR on 24 well, 12 well and 6 well plates, assessed.
AM134bus-5 and bus-8 drug sensitive worms were synchronized by bleaching and then plated onto multi-well plates and allowed to develop to adulthood. The adults in half of the wells were transferred to a separate well which had been soaked with varying amounts of FUDR solution using M9 buffer. The remaining wells were treated topically with FUDR.
The cultures were then regularly imaged by bright field microscopy and fed with OP50 when necessary.

O=c1[nH]c(=O)n([C@H]2C[C@H](O)[C@@H](CO)O2)cc1F [FUDR, 2′-Deoxy-5-fluorouridine]
progeny after 11 days (6 well plates, FUDR 2 μg/ml (25 μl of 10 mg/ml to 5 ml NGM), topical and transfer): no progeny can be observed | lowest effective dose at preventing the development of progeny (6 well plates, volume of 10 mg/ml FUDR to 5 ml of NGM, 1, 5, 10, 25 and 50 μl tested): 25 µL | optimal addition of 10 mg/ml FUDR per well for preventing progeny worms from developing (12 well plate (1.7 ug/ml in 2.5 ml NGM)): 0.015 mL | progeny after 11 days (12 well plates, FUDR 1.7 μg/ml (15 μl of 10 mg/ml to 2.5 ml NGM), topical application): no progeny can be observed | lowest effective dose at preventing the development of progeny (12 well plates, volume of 10 mg/ml FUDR to 2.5 ml of NGM, 1, 5, 10, 15 and 20 μl tested): 15 µL | progeny after 11 days (24 well plates, FUDR 2 μg/ml (5 μl of 10 mg/ml to 1 ml NGM), topical and transfer method): progeny can be observed
